This note sets out measurements from patent US8445291B2, “Method for detecting target substance, and tag, DNA, vector, probe and detection kit for use therewith” (National University Corporation Tokyo Medical and Dental …, priority 2007, dated 2013).

Data set [1] concerns tag peptide represented by structural formula (8). Put plainly: Crosslink reaction of chloroacetylated probe peptide with tag peptide. To be noted: 10 minutes after start, 1.0 μM tag and 1.0 μM probe, 25° C., pH 7.2. It is filed as biochemical. As to the method: The probe peptide for crosslink reaction obtained in Example 7 was used to perform a crosslink reaction.
The probe peptide was crosslinked to a tag peptide represented by the following structural formula (8). The tag polypeptide is identical to that used in Example 1.
To a 1.0 μM tag peptide solution (50 mM HEPES buffer (pH 7.2, 10 mM NaCl)), the probe peptide was added to a concentration of 1.0 μM and the reaction was carried out at 25° C.-1 mL samples were collected from the reaction mixture after 1, 5, 10, 15, 20 and 30 minutes. 1 mL of a 10% aqueous acetic acid solution was added to each sample to quench the reaction. The samples were analyzed by HPLC using a C18 reversed-phase analytical column (4.6×250 mm). The crosslinked product was identified by ESI-TOF MS. The yield of the reaction was calculated from the peak area ratio of HPLC.
In FIG. 10, the horizontal axis represents elapsed time after addition of the probe peptide whereas the vertical axis represents the yield of the crosslink reaction.

Data set [2] concerns fused protein of DsRed and PKC having at its N terminal end a tag polypeptide of sequence (A). Put plainly: Imaging of PKC in cytoplasm of CHO.K1 cells through formation of tag-probe complex (observation of NBD). The class given is cell-based. As to the method:
CHO.K1 cells expressing a fused protein of DsRed and PKC having at its N terminal end a tag polypeptide of sequence (A) as indicated below were prepared using Lipofectamin LTX (Invitrogen).
Subsequently, a permeabilization buffer (20 mM Hepes, pH 7.4, 140 mM KCl, 50 μg/mL saponin, 5 mM oxalic acid) was added to the thus-prepared CHO.K1 cells. After left to stand on ice for 10 min, the cells were washed with PBS, followed by incubating on ice for 20 min in PBS. Thereafter, the cells were incubated in PBS at room temperature for 2 min and then 37° C. for 2 min. Further, the cells were incubated at 37° C. for 30 min in a conditioned medium (Ham's F12) to which a probe indicated by sequence (B) (probe concentration: 1 μM (Final conc.)) had been added.
The medium was changed to a DMEM with no phenol red, and then, the cells were observed by a fluorescence microscope (IX81 (Olympus), objective lens: 20 times) at predetermined emission wavelength (490 nm to 510 nm).
(§1) Separately, before treated with the permeabilization buffer, the above-prepared CHO.K1 cells were treated for 10 min with 10 mM DMSO containing PDBu (phorbol 12,13 dibutyrate; final concentration: 10 μM). The cells were observed by the fluorescence microscope similar to the above.

Data set [3] has as its system probe peptide. Put plainly: Fluorescence titration of probe peptide with tag peptide (HEPES buffer), incl. Job's plot. It is filed as binding. Conditions: for fluorescence wavelength ultimately shifted to on addition of tag peptide: 0.5 μM probe peptide, 0.1 to 2.0 equivalents of tag peptide; for Kd: tag peptide to probe peptide, theoretical formula assuming 1 to 1 interaction, fluorescence at 505 nm, read-out: dissociation constant Kd. As to the method:
Fluorescence titration was performed for the tag polypeptides and the probe polypeptides of Examples 1 to 3.
In the fluorescence titration, the rate of change of the fluorescence intensity at 505 nm was plotted against the concentration of the tag peptide and the dissociation constant was calculated from a theoretical formula assuming 1 to 1 binding of the tag peptide to the probe peptide.
In Example 1, the fluorescence intensity at 505 nm in the presence of 1 equivalent of tag peptide was 18 times as high as that measured in the absence of the tag peptide.
Also in the fluorescence titration, with the total concentration of the tag peptide and the probe peptide being fixed at 1.0 μM, the ratio of the respective concentrations of the tag peptide and the probe peptide was varied and the fluorescence intensity at 505 nm was measured. The measured fluorescence intensity was plotted against the ratio of the tag peptide concentration to the total concentration of the tag peptide and the probe peptide and was analyzed by the theoretical formula assuming 1 to 1 binding of the tag peptide to the probe peptide.

Data set [4] can be described thus: Circular dichroism spectroscopy of tag peptide, probe peptide and tag-probe mixture. The class given is physicochemical. To be noted: for probe peptides that formed an α-helix structure: probe peptide alone; for tag peptides that formed an α-helix structure: tag peptide alone. As to the method: The circular dichroism spectrum of the tag polypeptides and the probe polypeptides of Examples 1 to 3 were measured.
The structures of the tag peptide, the probe peptide and the tag-probe complex were analyzed by circular dichroism spectroscopy.
In each of FIGS. 3A to 3C, the horizontal axis represents wavelength used for measurement whereas the vertical axis represents molar residue ellipticity.
(In general: Circular dichroism is the unequal absorption of left and right circularly polarised light.)

Data set [5] relates to probe peptide. The data set is described as follows: Fluorescence titration in cell lysate. The class given is binding. To be noted: HeLa cell lysate, 0.1 to 4.0 equivalents of tag peptide. As to the method:
Fluorescence titration was performed for the tag polypeptides and the robe polypeptides of Example 1 in a cell lysate.
10 mL of a HeLa cell culture solution containing 1.0×10^6 cells/mL were dispensed in a centrifugal tube and the cells were centrifuged for 5 minutes at 1000 rpm to obtain a pellet of HeLa cells. The pellet was dispersed in 1 mL HEPES buffer and the dispersion was sonicated for 10 minutes. Subsequently, the dispersion was filtered through a membrane filter to remove undesired materials and thus give a cell lysate. The probe peptide was dissolved in the cell lysate to a concentration of […]. To this solution, a tag peptide solution was added dropwise until the solution contained 0.1 to 4.0 equivalents of the tag peptide. The resulting solution was subjected to fluorescence spectroscopy.
In FIG. 9, the horizontal axis represents fluorescence wavelength whereas the vertical axis represents fluorescence intensity

The test system of data set [6] is fused protein of DsRed and PKC having at its N terminal end a tag polypeptide indicated by sequence (A). Put plainly: Localization of PKC in cytoplasm (DsRed fluorescence). It is filed as cell-based. To be noted: CHO.K1 cells treated for 10 min, final concentration 10 μM; 515 nm to 560 nm. As to the method: as §1
The following was used as a control; a group which was not treated with PDBu, and CHO.K1 cells to which only DIC was introduced (note that DIC is a vector used for introducing into cells the above-mentioned fused protein of DsRed and PKC having at its N terminal end a tag polypeptide indicated by sequence (A). The cells were observed as mentioned above at predetermined wavelength (515 nm to 560 nm). The results are shown in FIG. 11.

“ClAc-{Gly}{Ala-Leu-Lys-Lys-Lys-Leu-Glu}{Ala-Leu-Lys-Lys-Lys-Dap(NBD)-Glu}{Ala-Leu-Lys-Lys-Lys-Leu-Ala} [Example 7]”: the “yield of the crosslink reaction” value in data set [1] is on record as “at least 80%”. The “NBD-derived fluorescence in cells” value in data set [2] (1 μM probe, permeabilized CHO.K1 cells, around 510 nm) was “increase in fluorescence intensity”.
Broadly, the Kd is a measure of binding affinity in units of concentration. Turning to “ALKKELEALKKELEALKKELAGGCGGALEKELEALEKELEALEKELA [Example 2]”, in data set [3], the “fluorescence wavelength ultimately shifted to on addition of tag peptide” value is recorded as 516 nm and the Kd turned out to be 24.3 nM. For the same compound, in data set [4], the “probe peptides that formed an α-helix structure” value is given as 53%; the “tag peptides that formed an α-helix structure” value came out at 81%; the “tags and probes that formed an α-helix structure in the tag-probe mixture” value is on record as 78%.
With “ALKKELEAAKKELEALKKELAGGCGGALEKELEALEKEAEALEKELA [Example 1]”, in data set [3], the “fluorescence wavelength ultimately shifted to on addition of tag peptide” value was 505 nm and the Kd turned out to be 17.5 nM. Further, the “fluorescence intensity at 505 nm relative to that measured in the absence of the tag peptide” value in data set [3] (in the presence of 1 equivalent of tag peptide) is 18 times. Also, the “comparison of fluorescence intensity among Examples 1 to 3” value in data set [3] (overlapped spectra of highest peaks, FIG. 5) was “highest fluorescence intensity”. Besides, in data set [4], the “probe peptides that formed an α-helix structure” value was found to be 53%; the “tag peptides that formed an α-helix structure” value was determined as 58%; the “tags and probes that formed an α-helix structure in the tag-probe mixture” value is 71%. Further, in data set [5], the “spectral changes of probe peptide as tag peptide was added” value is given as “substantially the same spectral changes as in HEPES buffer”.
Regarding `CCCC(=O)O[C@@H]1[C@@H](C)[C@@]2(O)[C@@H](C=C(CO)C[C@]3(O)C(=O)C(C)=C[C@@H]23)[C@@H]2C(C)(C)[C@]12OC(=O)CCC` [PDBu, phorbol 12,13 dibutyrate, reference compound], in data set [2] (CHO.K1 cells treated for 10 min, final concentration 10 μM), the “localization of NBD-derived fluorescence” value is “locally observed”. For the same compound, the “localization of DsRed-derived fluorescence” value in data set [6] is “locally observed”.
As to “ALKKELEAGKKELEALKKELAGGCGGALEKELEALEKEGEALEKELA [Example 3]”, in data set [3], the “fluorescence wavelength ultimately shifted to on addition of tag peptide” value came out at 526 nm and the Kd was determined as 755 nM. For the same compound, in data set [4], the “probe peptides that formed an α-helix structure” value is 53%; the “tag peptides that formed an α-helix structure” value came to 18%; the “tags and probes that formed an α-helix structure in the tag-probe mixture” value stood at 41%.
